{"source": "patent US20200268761A1", "about": "(CIPLA LIMITED, priority 2017, published 2020)", "origin": "cited, not measured here", "key": {"[1]": {"molecular_target": "p-glycoprotein (Homo sapiens, UniProt P08183)", "sequence (P08183 whole entry)": "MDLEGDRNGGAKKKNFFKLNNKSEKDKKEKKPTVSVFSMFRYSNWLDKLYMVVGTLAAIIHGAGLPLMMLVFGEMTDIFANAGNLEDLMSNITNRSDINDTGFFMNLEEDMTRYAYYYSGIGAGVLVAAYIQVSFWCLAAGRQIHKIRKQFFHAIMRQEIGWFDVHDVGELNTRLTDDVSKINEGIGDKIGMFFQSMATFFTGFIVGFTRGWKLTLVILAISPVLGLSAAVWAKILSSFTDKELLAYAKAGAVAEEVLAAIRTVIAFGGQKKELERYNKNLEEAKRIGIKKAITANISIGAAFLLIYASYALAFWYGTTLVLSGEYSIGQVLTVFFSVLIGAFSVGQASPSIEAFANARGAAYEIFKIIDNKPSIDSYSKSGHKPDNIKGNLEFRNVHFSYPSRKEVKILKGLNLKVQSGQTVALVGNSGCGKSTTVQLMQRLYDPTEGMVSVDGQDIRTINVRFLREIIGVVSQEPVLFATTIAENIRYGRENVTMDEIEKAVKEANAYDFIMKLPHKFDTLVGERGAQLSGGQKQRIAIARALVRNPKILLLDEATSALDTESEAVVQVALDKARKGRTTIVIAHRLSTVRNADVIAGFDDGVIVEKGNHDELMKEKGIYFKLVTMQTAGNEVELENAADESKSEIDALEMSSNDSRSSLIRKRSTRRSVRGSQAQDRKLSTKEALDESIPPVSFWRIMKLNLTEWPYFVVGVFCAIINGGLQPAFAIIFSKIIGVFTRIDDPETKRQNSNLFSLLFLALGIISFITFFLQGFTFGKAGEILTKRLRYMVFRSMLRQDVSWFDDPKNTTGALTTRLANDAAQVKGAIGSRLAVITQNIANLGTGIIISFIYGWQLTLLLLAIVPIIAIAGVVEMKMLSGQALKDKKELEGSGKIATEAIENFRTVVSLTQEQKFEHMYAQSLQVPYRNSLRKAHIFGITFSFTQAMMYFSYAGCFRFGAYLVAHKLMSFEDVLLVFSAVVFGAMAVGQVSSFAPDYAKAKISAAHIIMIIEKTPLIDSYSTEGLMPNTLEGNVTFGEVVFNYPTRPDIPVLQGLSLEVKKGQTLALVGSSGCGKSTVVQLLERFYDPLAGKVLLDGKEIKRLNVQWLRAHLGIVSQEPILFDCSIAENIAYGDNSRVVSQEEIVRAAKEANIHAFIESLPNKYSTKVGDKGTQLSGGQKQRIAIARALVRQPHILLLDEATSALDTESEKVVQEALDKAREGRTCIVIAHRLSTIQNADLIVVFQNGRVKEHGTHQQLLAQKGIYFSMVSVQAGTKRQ"}, "[2]": {"molecular_target": "CYP3A4 (Homo sapiens, UniProt P08684)", "sequence (P08684 whole entry, species assumed)": "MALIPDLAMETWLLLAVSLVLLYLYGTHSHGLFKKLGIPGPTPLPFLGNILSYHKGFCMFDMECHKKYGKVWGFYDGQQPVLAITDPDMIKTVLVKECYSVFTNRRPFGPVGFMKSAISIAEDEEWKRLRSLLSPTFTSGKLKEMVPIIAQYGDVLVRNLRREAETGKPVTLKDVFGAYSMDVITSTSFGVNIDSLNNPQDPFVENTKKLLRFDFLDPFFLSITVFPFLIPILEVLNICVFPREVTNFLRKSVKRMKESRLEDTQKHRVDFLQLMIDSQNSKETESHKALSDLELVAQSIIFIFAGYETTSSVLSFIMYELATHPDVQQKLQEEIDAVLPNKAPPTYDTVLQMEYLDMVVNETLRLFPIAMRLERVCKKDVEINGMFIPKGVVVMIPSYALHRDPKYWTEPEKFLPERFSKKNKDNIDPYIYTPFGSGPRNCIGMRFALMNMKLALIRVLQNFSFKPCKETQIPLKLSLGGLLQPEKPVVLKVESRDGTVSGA", "conditions": "major drug metabolizing enzyme"}}, "data": [{"smiles": "C=CC(=O)N1CCC[C@@H](n2nc(-c3ccc(Oc4ccccc4)cc3)c3c(N)ncnc32)C1", "note": "[Ibrutinib]", "values": [{"measurement": "solubility in HCl at pH 1.2", "setting": "HCl, pH 1.2", "value": "slightly soluble"}, {"measurement": "solubility in N,N-dimethylformamide, tetrahydrofuran and dichloromethane", "setting": "N,N-dimethylformamide, tetrahydrofuran, dichloromethane", "value": "freely soluble"}, {"measurement": "solubility in acetone and methanol", "setting": "acetone, methanol", "value": "soluble"}, {"measurement": "solubility in ethyl acetate, ethanol and acetonitrile", "setting": "ethyl acetate, ethanol, acetonitrile", "value": "sparingly soluble"}, {"measurement": "solubility in non-polar solvents", "setting": "non-polar solvents such as hexane and heptanes", "value": "practically insoluble"}, {"measurement": "solubility in water", "setting": "water, ibrutinib base", "value": "practically insoluble"}]}, {"smiles": "O=C(/C=C/C=C/c1ccc2c(c1)OCO2)N1CCCCC1", "note": "[Piperine, (E.E.) 1˜[5,3-benzodioxyl-5-yl)-1-oxo-2,4-pentadienyl-piperidine]", "values": [{"measurement": "inhibition of p-glycoprotein", "setting": "[1]", "value": "inhibits"}, {"measurement": "inhibition of CYP3A4", "setting": "[2]", "value": "inhibits"}]}]}
